Marks after values point to notes of the source that are not given here.
Molecular target: T1, Dopamine beta hydroxylase (Homo sapiens, UniProt P09172)
T1 construct: 125 μl of plasma; tissue Instituto Português do Sangue Transplantação; host or cells: human plasma from healthy donors
T1 sequence (P09172 40-617 limits assumed): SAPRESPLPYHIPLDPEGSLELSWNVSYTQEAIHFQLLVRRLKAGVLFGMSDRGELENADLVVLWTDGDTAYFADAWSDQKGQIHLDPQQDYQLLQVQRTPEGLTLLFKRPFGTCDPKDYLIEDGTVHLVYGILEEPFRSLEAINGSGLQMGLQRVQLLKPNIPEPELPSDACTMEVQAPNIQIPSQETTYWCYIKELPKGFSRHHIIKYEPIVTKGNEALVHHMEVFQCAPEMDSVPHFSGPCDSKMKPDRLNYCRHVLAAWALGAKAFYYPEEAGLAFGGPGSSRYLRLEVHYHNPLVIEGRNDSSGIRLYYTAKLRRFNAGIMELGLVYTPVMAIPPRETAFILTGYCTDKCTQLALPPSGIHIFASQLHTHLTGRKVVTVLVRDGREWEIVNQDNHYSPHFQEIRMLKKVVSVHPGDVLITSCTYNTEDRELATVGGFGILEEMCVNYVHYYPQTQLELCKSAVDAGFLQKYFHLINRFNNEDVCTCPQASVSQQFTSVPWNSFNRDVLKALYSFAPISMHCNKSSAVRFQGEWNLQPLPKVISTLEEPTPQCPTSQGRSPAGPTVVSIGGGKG
Test: Dopamine beta hydroxylase activity in human plasma
Format: biochemical
How it was run: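 Healthy-donor human plasma pre-incubated 10 min at 37° C with compound at final 10, 100 or 1000 nM in pH 5.0 acetate buffer with ascorbate, fumarate, pargyline, N-ethylmaleimide, catalase and copper sulfate. Tyramine substrate then added for 45 min; octopamine formed was isolated by SCX cartridge, periodate-converted and read at 330 nm; activity given as % control.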

SMILES	Plasma (0.01 μM), activity in % of control (inhibitor 0.01 μM)	Plasma (0.1 μM), activity in % of control (inhibitor 0.1 μM)	Plasma (0.01 μM), activity in % of control, re-test (asterisked) (inhibitor 0.01 μM, re-tested under the same experimental conditions, asterisked data believed to be correct)	Plasma (0.1 μM), activity in % of control, re-test (asterisked) (inhibitor 0.1 μM, re-tested under the same experimental conditions, asterisked data believed to be correct)
Cn1c(CC(=O)N2CCC[C@H]2C(F)(F)F)c2n(c1=S)C[C@@H](c1c(F)ccc(F)c1F)C2 [Example 248, 2-((R)-2-methyl-3-thioxo-6-(2,3,6-trifluorophenyl)-2,5,6,7-tetrahydro-3H-pyrrolo[1,2-c]imidazol-1-yl)-1-((S)-2-(trifluoromethyl)pyrrolidin-1-yl)ethan-1-one]	98.2 % of control	51.8 % of control		
Cn1c(CC(N)=O)c2n(c1=S)C[C@H](c1c(F)ccc(Cl)c1F)C2 [Example 249, (S)-2-(6-(3-chloro-2,6-difluorophenyl)-2-methyl-3-thioxo-2,5,6,7-tetrahydro-3H-pyrrolo[1,2-c]imidazol-1-yl)acetamide]	96.0 % of control	40.9 % of control		
Cn1c(CC(=O)N[C@@H]2CCOC2)c2n(c1=S)C[C@H](c1c(F)ccc(Cl)c1F)C2 [Example 250, 2-((S)-6-(3-chloro-2,6-difluorophenyl)-2-methyl-3-thioxo-2,5,6,7-tetrahydro-3H-pyrrolo[1,2-c]imidazol-1-yl)-N—((R)-tetrahydrofuran-3-yl)acetamide]	46.1 % of control	7.3 % of control		
Cn1c(CC(=O)N[C@@H]2CCOC2)c2n(c1=S)C[C@H](c1cc(Cl)ccc1F)C2 [Example 251, 2-((S)-6-(5-chloro-2-fluorophenyl)-2-methyl-3-thioxo-2,5,6,7-tetrahydro-3H-pyrrolo[1,2-c]imidazol-1-yl)-N—((R)-tetrahydrofuran-3-yl)acetamide]	80.0 % of control	36.0 % of control		
CN(C(=O)Cc1c2n(c(=S)n1C)C[C@H](c1c(F)ccc(Br)c1F)C2)C1CCOC1 (stereo partly drawn) [Example 252, 2-((S)-6-(3-bromo-2,6-difluorophenyl)-2-methyl-3-thioxo-2,5,6,7-tetrahydro-3H-pyrrolo[1,2-c]imidazol-1-yl)-N-methyl-N-(tetrahydrofuran-3-yl)acetamide]	82.2 % of control	54.8 % of control	46.0* % of control	6.7* % of control
Cn1c(CC(=O)NCC#N)c2n(c1=S)C[C@H](c1c(F)ccc(Br)c1F)C2 [Example 253, (S)-2-(6-(3-bromo-2,6-difluorophenyl)-2-methyl-3-thioxo-2,5,6,7-tetrahydro-3H-pyrrolo[1,2-c]imidazol-1-yl)-N-(cyanomethyl)acetamide]	63.4 % of control	24.5 % of control		
Cn1c(CC(=O)NC2(C#N)CC2)c2n(c1=S)C[C@@H](c1c(F)ccc(F)c1F)C2 [Example 254, (R)—N-(1-cyanocyclopropyl)-2-(2-methyl-3-thioxo-6-(2,3,6-trifluorophenyl)-2,5,6,7-tetrahydro-3H-pyrrolo[1,2-c]imidazol-1-yl)acetamide]	81.4 % of control	62.2 % of control		
Cn1c(CC(=O)N[C@@H]2CCCOC2)c2n(c1=S)C[C@@H](c1c(F)ccc(F)c1F)C2 [Example 255, 2-((R)-2-methyl-3-thioxo-6-(2,3,6-trifluorophenyl)-2,5,6,7-tetrahydro-3H-pyrrolo[1,2-c]imidazol-1-yl)-N—((R)-tetrahydro-2H-pyran-3-yl)acetamide]	71.8 % of control	24.6 % of control		
Cl.Cn1c(CCN2CCOCC2)c2n(c1=S)C[C@@H](c1c(F)c(F)cc(F)c1F)C2 [Example 257, (R)-2-methyl-1-(2-morpholinoethyl)-6-(2,3,5,6-tetrafluorophenyl)-2,5,6,7-tetrahydro-3H-pyrrolo[1,2-c]imidazole-3-thione Hydrochloride]	105.9 % of control	92.4 % of control		
Cn1c(CC(=O)Nc2ccccn2)c2n(c1=S)C[C@H](c1c(F)ccc(Cl)c1F)C2 [Example 258, (S)-2-(6-(3-chloro-2,6-difluorophenyl)-2-methyl-3-thioxo-3,5,6,7-tetrahydro-2H-pyrrolo[1,2-c]imidazol-1-yl)-N-(pyridin-2-yl)acetamide]	84.2 % of control	21.3 % of control		

Now from value to molecule:

Plasma (0.01 μM), activity in % of control (inhibitor 0.01 μM)	Plasma (0.1 μM), activity in % of control (inhibitor 0.1 μM)	Plasma (0.01 μM), activity in % of control, re-test (asterisked) (inhibitor 0.01 μM, re-tested under the same experimental conditions, asterisked data believed to be correct)	Plasma (0.1 μM), activity in % of control, re-test (asterisked) (inhibitor 0.1 μM, re-tested under the same experimental conditions, asterisked data believed to be correct)	SMILES
90.8 % of control	76.1 % of control			Cn1c(CCc2cccnc2)c2n(c1=S)C[C@@H](c1c(F)c(F)cc(F)c1F)C2 [Example 259, (R)-2-methyl-1-(2-(pyridin-3-yl)ethyl)-6-(2,3,5,6-tetrafluorophenyl)-6,7-dihydro-2H-pyrrolo[1,2-c]imidazole-3(5H)-thione]
84.1 % of control	26.5 % of control			Cn1c(CCC(=O)O)c2n(c1=S)C[C@@H](c1c(F)c(F)cc(F)c1F)C2 [Example 260, (R)-3-(2-methyl-6-(2,3,5,6-tetrafluorophenyl)-3-thioxo-2,5,6,7-tetrahydro-3H-pyrrolo[1,2-c]imidazol-1-yl)propanoic Acid]
86.2 % of control	31.8 % of control			Cn1c(CCC(=O)N2CCCC2)c2n(c1=S)C[C@@H](c1c(F)c(F)cc(F)c1F)C2 [Example 261, (R)-3-(2-methyl-6-(2,3,5,6-tetrafluorophenyl)-3-thioxo-2,5,6,7-tetrahydro-3H-pyrrolo[1,2-c]imidazol-1-yl)-1-(pyrrolidin-1-yl)propan-1-one]
82.6 % of control	70.1 % of control			Cn1c(CCC(N)=O)c2n(c1=S)C[C@H](c1c(F)ccc(Cl)c1F)C2 [Example 262, (S)-3-(6-(3-chloro-2,6-difluorophenyl)-2-methyl-3-thioxo-2,5,6,7-tetrahydro-3H-pyrrolo[1,2-c]imidazol-1-yl)propanamide]
103.3 % of control	87.1 % of control			Cn1c(CCC(N)=O)c2n(c1=S)C[C@@H](c1c(F)cccc1F)C2 [Example 263, (R)-3-(6-(2,6-difluorophenyl)-2-methyl-3-thioxo-2,5,6,7-tetrahydro-3H-pyrrolo[1,2-c]imidazol-1-yl)propanamide]
98.4 % of control	54.2 % of control			Cn1c(CCC(=O)N2CCCC2)c2n(c1=S)C[C@@H](c1c(F)cccc1F)C2 [Example 264, (R)-3-(6-(2,6-difluorophenyl)-2-methyl-3-thioxo-2,5,6,7-tetrahydro-3H-pyrrolo[1,2-c]imidazol-1-yl)-1-(pyrrolidin-1-yl)propan-1-one]
94.9 % of control	70.6 % of control			Cn1c(CCC(=O)N[C@@H]2CCOC2)c2n(c1=S)C[C@@H](c1c(F)ccc(F)c1F)C2 [Example 265, 3-((R)-2-methyl-3-thioxo-6-(2,3,6-trifluorophenyl)-2,5,6,7-tetrahydro-3H-pyrrolo[1,2-c]imidazol-1-yl)-N—((R)-tetrahydrofuran-3-yl)propanamide]
85.3 % of control	56.0 % of control			Cn1c(CCC(=O)N2CCOCC2)c2n(c1=S)C[C@@H](c1c(F)ccc(F)c1F)C2 [Example 266, (R)-3-(2-methyl-3-thioxo-6-(2,3,6-trifluorophenyl)-2,5,6,7-tetrahydro-3H-pyrrolo[1,2-c]imidazol-1-yl)-1-morpholinopropan-1-one]
90.8 % of control	55.8 % of control			Cn1c(CCC(=O)N2CCC[C@H]2CO)c2n(c1=S)C[C@@H](c1c(F)ccc(F)c1F)C2 [Example 267, 1-((S)-2-(hydroxymethyl)pyrrolidin-1-yl)-3-((R)-2-methyl-3-thioxo-6-(2,3,6-trifluorophenyl)-2,5,6,7-tetrahydro-3H-pyrrolo[1,2-c]imidazol-1-yl)propan-1-one]
99.8 % of control	57.7 % of control			Cn1c(CCC(=O)Nc2ccccn2)c2n(c1=S)C[C@H](c1c(F)ccc(Cl)c1F)C2 [Example 268, (S)-3-(6-(3-chloro-2,6-difluorophenyl)-2-methyl-3-thioxo-2,5,6,7-tetrahydro-3H-pyrrolo[1,2-c]imidazol-1-yl)-N-(pyridin-2-yl)propanamide]
105.6 % of control	83.7 % of control			Cn1c(CCC(=O)Nc2ccccn2)c2n(c1=S)C[C@@H](c1c(F)cccc1F)C2 [Example 269, (R)-3-(6-(2,6-difluorophenyl)-2-methyl-3-thioxo-2,5,6,7-tetrahydro-3H-pyrrolo[1,2-c]imidazol-1-yl)-N-(pyridin-2-yl)propanamide]

— patent US11434242B2, “Dopamine-b-hydroxylase inhibitors” (BIAL-PORTELA & Cª, S.A., priority 2017, dated 2022)
